Laboratory results as given in patent US20230107642A1 (Erasca, Inc., priority 2020, published 2023).

Each molecule was assayed against T1, K-Ras G12C (Homo sapiens, UniProt P01116, G12C) (assay: CAF assay (% CAF; method in Example 7, not in this part)). Conditions: 10 uM, 1 h; Table 3.
T1 construct: This protein contained 188 amino acids in total, including an N-terminal 6-Histidine tag; made in house; host or cells: E. coli BL21
Assay type: binding

SMILES | % CAF @ 10 uM, 1h [%]
C=CC(=O)N1CCN(c2nc(=O)n3c4c(c(-c5c(F)cc(F)cc5F)c(Cl)cc24)SC[C@@H]3CCCN2C[C@@H]3C[C@H]2CO3)[C@@H](C)C1 [Example 109, (S)-3-(3-((1S,4S)-2-oxa-5-azabicyclo[2.2.1]heptan-5-yl)propyl)-7-((S)-4-acryloyl-2-methylpiperazin-1-yl)-9-chloro-10-(2,4,6-trifluorophenyl)-2,3-dihydro-5H-[1,4]thiazino[2,3,4-ij]quinazolin-5-one] | 96.9
C=CC(=O)N1CCN(c2nc(=O)n3c4c(c(-c5c(F)cc(F)cc5F)c(Cl)cc24)SC[C@H]3CCCN2C[C@@H]3C[C@H]2CO3)[C@@H](C)C1 [Example 110, (R)-3-(3-((1S,4S)-2-oxa-5-azabicyclo[2.2.1]heptan-5-yl)propyl)-7-((S)-4-acryloyl-2-methylpiperazin-1-yl)-9-chloro-10-(2,4,6-trifluorophenyl)-2,3-dihydro-5H-[1,4]thiazino[2,3,4-ij]quinazolin-5-one] | 96.6
C[C@H]1CN(C(=O)/C=C/C(F)(F)F)CCN1c1nc(=O)n2c3c(c(-c4c(F)cc(F)cc4F)c(Cl)cc13)SCC2 [Example 111, (S,E)-9-chloro-7-(2-methyl-4-(4,4,4-trifluorobut-2-enoyl)piperazin-1-yl)-10-(2,4,6-trifluorophenyl)-2,3-dihydro-5H-[1,4]thiazino[2,3,4-ij]quinazolin-5-one] | 95.2
C[C@H]1CN(C(=O)/C=C/C(F)(F)F)CCN1c1nc(=O)n2c3c(c(-c4ccc(F)cc4F)c(Cl)cc13)SCC2 [Example 112, 9-chloro-10-(2,4-difluorophenyl)-7-((S)-2-methyl-4-((E)-4,4,4-trifluorobut-2-enoyl)piperazin-1-yl)-2,3-dihydro-5H-[1,4]thiazino[2,3,4-ij]quinazolin-5-one] | 86.2
C=C(F)C(=O)N1CCN(c2nc(=O)n3c4c(c(-c5ccc(F)cc5F)c(Cl)cc24)SCC3)[C@@H](C)C1 [Example 113, 9-chloro-10-(2,4-difluorophenyl)-7-((S)-4-(2-fluoroacryloyl)-2-methylpiperazin-1-yl)-2,3-dihydro-5H-[1,4]thiazino[2,3,4-ij]quinazolin-5-one] | 21.7
C=CC(=O)N1CCN(c2nc(=O)n3c4c(c(-c5ccc(F)cc5F)c(CC)cc24)SCC3)[C@@H](C)C1 [Example 114, 7-((S)-4-acryloyl-2-methylpiperazin-1-yl)-10-(2,4-difluorophenyl)-9-ethyl-2,3-dihydro-5H-[1,4]thiazino[2,3,4-ij]quinazolin-5-one] | 92.8
C=CC(=O)N1CCN(c2nc(=O)n3c4c(c(-c5ccc(F)cc5F)c(C)cc24)SCC3)[C@@H](C)C1 [Example 115, 7-((S)-4-acryloyl-2-methylpiperazin-1-yl)-10-(2,4-difluorophenyl)-9-methyl-2,3-dihydro-5H-[1,4]thiazino[2,3,4-ij]quinazolin-5-one] | 94.1
C=CC(=O)N1CCN(c2nc(=O)n3c4c(c(-c5ccc(F)cc5F)c(Cl)cc24)SCC3)CC12CCNC2=O (centres unmarked) [Example 116, 7-(6-acryloyl-1-oxo-2,6,9-triazaspiro[4.5]decan-9-yl)-9-chloro-10-(2,4-difluorophenyl)-2,3-dihydro-5H-[1,4]thiazino[2,3,4-ij]quinazolin-5-one] | 27.4
C=CC(=O)N1CCN(c2nc(=O)n3c4c(c(-c5ccc(F)cc5F)c(Cl)cc24)SCC3)C2CN(S(C)(=O)=O)CC21 (centres unmarked) [Example 118, 7-(4-acryloyl-6-(methylsulfonyl)octahydro-1H-pyrrolo[3,4-b]pyrazin-1-yl)-9-chloro-10-(2,4-difluorophenyl)-2,3-dihydro-5H-[1,4]thiazino[2,3,4-ij]quinazolin-5-one] | 48.3
C[C@H]1CN(C(=O)/C=C/C(F)F)CCN1c1nc(=O)n2c3c(c(-c4ccc(F)cc4F)c(Cl)cc13)SCC2 [Example 119, 9-chloro-7-((S)-4-((E)-4,4-difluorobut-2-enoyl)-2-methylpiperazin-1-yl)-10-(2,4-difluorophenyl)-2,3-dihydro-5H-[1,4]thiazino[2,3,4-ij]quinazolin-5-one] | 97.1
C[C@H]1CN(C(=O)/C=C/C(F)F)CCN1c1nc(=O)n2c3c(c(-c4c(F)cc(F)cc4F)c(Cl)cc13)SCC2 [Example 120, (S,E)-9-chloro-7-(4-(4,4-difluorobut-2-enoyl)-2-methylpiperazin-1-yl)-10-(2,4,6-trifluorophenyl)-2,3-dihydro-5H-[1,4]thiazino[2,3,4-ij]quinazolin-5-one] | 95.9
CN(C)C/C=C/C(=O)N1CCN(c2nc(=O)n3c4c(c(-c5ccc(F)cc5F)c(Cl)cc24)SCC3)C[C@H]1C#N [Example 121, (2S)-4-(9-chloro-10-(2,4-difluorophenyl)-5-oxo-2,3-dihydro-5H-[1,4]thiazino[2,3,4-ij]quinazolin-7-yl)-1-((E)-4-(dimethylamino)but-2-enoyl)piperazine-2-carbonitrile] | 3.6
C=CC(=O)N1CCN(c2nc(=O)n3c4c(c(-c5ccc(F)cc5F)c(Cl)cc24)SCC3CN2CCN(CC)CC2)[C@@H](C)C1 (stereo partly drawn) [Example 122, 7-((S)-4-acryloyl-2-methylpiperazin-1-yl)-9-chloro-10-(2,4-difluorophenyl)-3-((4-ethylpiperazin-1-yl)methyl)-2,3-dihydro-5H-[1,4]thiazino[2,3,4-ij]quinazolin-5-one] | 80.9
C=C(F)C(=O)N1CCN(c2nc(=O)n3c4c(c(-c5ccc(F)cc5F)c(Cl)cc24)SCC3)C[C@H]1C#N [Example 125, (2S)-4-(9-chloro-10-(2,4-difluorophenyl)-5-oxo-2,3-dihydro-5H-[1,4]thiazino[2,3,4-ij]quinazolin-7-yl)-1-(2-fluoroacryloyl) piperazine-2-carbonitrile] | 94.5
C=CC(=O)N1CCN(c2nc(=O)n3c4c(c(-c5ccc(F)cc5F)c(Cl)cc24)SCC3CN2CCN(C)CC2)[C@@H](C)C1 (stereo partly drawn) [Example 126, 7-((S)-4-acryloyl-2-methylpiperazin-1-yl)-9-chloro-10-(2,4-difluorophenyl)-3-((4-methylpiperazin-1-yl)methyl)-2,3-dihydro-5H-[1,4]thiazino[2,3,4-ij]quinazolin-5-one] | 33.1
C=CC(=O)N1CCN(c2nc(=O)n3c4c(c(-c5cccc6cnn(C)c56)c(Cl)cc24)SCC3)[C@@H](C)C1 [Example 127, 7-((S)-4-acryloyl-2-methylpiperazin-1-yl)-9-chloro-10-(1-methyl-1H-indazol-7-yl)-2,3-dihydro-5H-[1,4]thiazino[2,3,4-ij]quinazolin-5-one] | 60
C=CC(=O)N1CCN(c2nc(=O)n3c4c(c(-c5ccc(F)cc5F)c(Cl)cc24)SCC3)CC12CNC2=O (centres unmarked) [Example 128, 7-(5-acryloyl-1-oxo-2,5,8-triazaspiro[3.5]nonan-8-yl)-9-chloro-10-(2,4-difluorophenyl)-2,3-dihydro-5H-[1,4]thiazino[2,3,4-ij]quinazolin-5-one] | 62.7
C=CC(=O)N1C2CSCC1CN(c1nc(=O)n3c4c(c(-c5ccc(F)cc5F)c(Cl)cc14)SCC3)C2 [Example 129, 7-(9-acryloyl-3-thia-7,9-diazabicyclo[3.3.1]nonan-7-yl)-9-chloro-10-(2,4-difluorophenyl)-2,3-dihydro-5H-[1,4]thiazino[2,3,4-ij]quinazolin-5-one] | 95.3
C=CC(=O)N1CCN(c2nc(=O)n3c4c(c(-c5ccc(F)cc5F)c(Cl)cc24)SC[C@H]3COC)[C@@H](C)C1 [Example 130, (3R)-7-((S)-4-acryloyl-2-methylpiperazin-1-yl)-9-chloro-10-(2,4-difluorophenyl)-3-(methoxymethyl)-2,3-dihydro-5H-[1,4]thiazino[2,3,4-ij]quinazolin-5-one] | 94.5
C=CC(=O)N1CCN(c2nc(=O)n3c4c(c(-c5ccc(F)cc5F)c(Cl)cc24)SCC3)C2CS(=O)(=O)CC21 (centres unmarked) [Example 131, 7-(4-acryloyl-6,6-dioxidohexahydrothieno[3,4-b]pyrazin-1(2H)-yl)-9-chloro-10-(2,4-difluorophenyl)-2,3-dihydro-5H-[1,4]thiazino[2,3,4-ij]quinazolin-5-one] | 82.2
C=CC(=O)N1CCN(c2nc(=O)n3c4c(c(-c5ccc(F)cc5F)c(C#N)cc24)SCC3)[C@@H](C)C1 [Example 132, 7-((S)-4-acryloyl-2-methylpiperazin-1-yl)-10-(2,4-difluorophenyl)-5-oxo-2,3-dihydro-5H-[1,4]thiazino[2,3,4-ij]quinazoline-9-carbonitrile] | 91.9
C=CC(=O)N1CCN(c2nc(=O)n3c4c(c(-c5ccc(F)cc5F)c(Cl)cc24)SCC3)CC12CN(C)C2=O (centres unmarked) [Example 133, 7-(5-acryloyl-2-methyl-1-oxo-2,5,8-triazaspiro[3.5]nonan-8-yl)-9-chloro-10-(2,4-difluorophenyl)-2,3-dihydro-5H-[1,4]thiazino[2,3,4-ij]quinazolin-5-one] | 51.9
C=CC(=O)N1CCN(c2nc(=O)n3c4c(c(-c5ccc(F)cc5F)c(Cl)cc24)SCC3)C2COCC21 (centres unmarked) [Example 134, 7-(4-acryloylhexahydro-furo[3,4-b]pyrazin-1(2H)-yl)-9-chloro-10-(2,4-difluorophenyl)-2,3-dihydro-5H-[1,4]thiazino[2,3,4-ij]quinazolin-5-one] | 85
C=CC(=O)N1CC2CC(C1)N2c1nc(=O)n2c3c(c(-c4ccc(F)cc4F)c(Cl)cc13)SCC2 [Example 135, 7-(3-acryloyl-3,6-diazabicyclo[3.1.1]heptan-6-yl)-9-chloro-10-(2,4-difluorophenyl)-2,3-dihydro-5H-[1,4]thiazino[2,3,4-ij]quinazolin-5-one] | 0
C=CC(=O)N1CCN(c2nc(=O)n3c4c(c(-n5ccccc5=O)c(Cl)cc24)SCC3)[C@@H](C)C1 [Example 136, 7-((S)-4-acryloyl-2-methylpiperazin-1-yl)-9-chloro-10-(2-oxopyridin-1(2H)-yl)-2,3-dihydro-5H-[1,4]thiazino[2,3,4-ij]quinazolin-5-one] | 89.4

Same assay, conditions: 10 μM, 1 h; Table 4

SMILES | % CAF @ 10 μM, 1 h [%]
C=CC(=O)N1CCN(c2nc(=O)n3c4c(c(-c5ccc(F)cc5F)c(Cl)cc24)SC[C@H]3COC)[C@@H](C)C1 [Example 130, (3R)-7-((S)-4-acryloyl-2-methylpiperazin-1-yl)-9-chloro-10-(2,4-difluorophenyl)-3-(methoxymethyl)-2,3-dihydro-5H-[1,4]thiazino[2,3,4-ij]quinazolin-5-one] | 94.5
